Values of other authors, collected in paper PMC10363405 (Methods in molecular biology (Clifton, N.J.), 2022).

Molecular target: β-tubulin
Test: fluorescence enhancement titration with crosslinked microtubules
Assay type: binding, Bos taurus

CC(=O)OC1C(=O)C2(C)C(OC(=O)CCNC(=O)c3cc4cc(F)c(O)c(F)c4oc3=O)CC3OCC3(OC(C)=O)C2C(OC(=O)c2ccccc2)C2(O)CC(OC(=O)C(O)C(NC(=O)c3ccccc3)c3ccccc3)C(C)=C1C2(C)C (stereo not drawn) [PB-β-Ala-Taxol]
Kd: 63 ± 8 nM
